Entries after “also recorded” stand apart in the source; their conditions may differ.

The record followed here is patent US9040713B2, “Methods of managing blood sugar levels and compositions related thereto” (EMORY UNIVERSITY, priority 2010, dated 2015).

Test [1] deals with T1, GST-IRTK (Homo sapiens, UniProt P06213).
T1 construct: GST-tagged IRTK (GST-IRTK, a.a. 1011-1382); purchased Invitrogen
The test can be described thus: IR in vitro kinase assay (histone H2B phosphorylation). Format: biochemical. The settings on record: different concentrations of compound. The protocol: Parental CHO cells were used as a negative control (bottom panel). The fluorescence-labeled cells were analyzed on flow cytometry. (B) DDN binds to IRTK. UV-visible spectra were scanned from 200 to 800 nm for IRTK fragment in the presence of DDN or its analogue. When DDN binds to IRTK, it elicits the absorption alteration at 560 and 602 nm. (C) DDN protects IRTK from proteolysis. GST-IRTK was subjected to limited trypsin digestion in the presence of DDN (50 μM), ATP-γ-S (5 μM) or both. The reaction mixture was resolved by SDS-PAGE, followed by silver staining (D) DDN increases IRTK activity in vitro.
Parental CHO cells were used as a negative control (Bottom panel). The fluorescence-labeled cells were analyzed on flow cytometry. (B) 4524-E7 protects IRTK from proteolysis. GST-IRTK was subjected to limited trypsin or chymotrypsin digestion in the presence of 4524-E7 (50 μM), ATPyS (5 μM) or both at 37° C. for 5 min. The reaction mixture was resolved by SDS-PAGE, followed by silver staining Cleaved fragments were asterisked. (C) 4524-E7 increases IRTK activity in vitro. Recombinant GST-IRTK, GST-IGFRTK, and GST-EGFRTK were incubated with different concentrations of 4524-E7 or 10 μM 2—NH2-NQ and the kinase activity was examined by monitoring the phosphorylation of histone H2B. (E) In vitro kinase activity of various IRTK/IGF-1R kinase hybrids. The GFP-tagged kinases were expressed in HEK293, immunoprecipitated and incubated with different concentrations of 4524-E7 as indicated. […] Expressions of the kinases were also verified (lower panel).
Recombinant GST-IRTK was incubate with 50 mM tris-HCl (pH7.4), 10 mM MgCl2, and 50 μM ATP with different concentration of compound for 15 min at 25° C. Histone H2B (0.35 μg/ml) and [γ32P]ATP (0.25 μCi/ul) were added and the samples were further incubated for 10 min. The sample was separated on a SDS-polyacrylamide gel and autoradiographed.

A further test relates to C57BL/6J mice. Nature of the test: Blood glucose level test in C57BL/6J mice. Format: in vivo, mouse. The following applies: 20 mg/kg oral, 12 h starved. The protocol: (§1) (A) DDN reduces blood glucose in C57BL/6J mice. […] Blood glucose was monitored before and after dosing at various time points as indicated (*: P<0.05, **: P<0.01; ***: P<0.001, n=10-13, Two-way ANOVA vs vehicle). (B) DDN provokes IR phosphorylation and its downstream signaling in C57BL/6J mice. Three month-old C57BL/6J mice were starved for 12 h and then orally administrated with vehicle (0.5% methylcellulose), DDN (20 mg/kg) or 2NH2-NQ (20 mg/kg). Cell lysates were prepared from liver and muscle tissues collected at 3, 4, and 5 h after drug administration and analyzed by immunoprecipitation and immunoblotting. (C) DDN quickly activates IR phosphorylation and its downstream signaling. Three-month-old C57BL/6J mice were starved for 12 h and then injected with vehicle, 5 mg/kg DDN or 5 mg/kg 2NH2-NQ through vena cava. After 5 min, the liver was collected and analyzed by immunobloting using specific antibodies.
(§2) (A) 4524-E7 provokes IR phosphorylation in various tissues of mice. Three-month-old C57BL/6J mice were starved for 12 h and then dosed with vehicle (0.5% methylcellulose) or 4524-E7 (20 mg/kg). Cell lysates from liver, muscle, and WAT were prepared at 3, 4, and 5 h after drug administration and analyzed by immunoblotting. (B) Basal and insulin-stimulated hepatic glucose production rates were measured by hyperinsulinemic-euglycemic clamp. […] (C) Hypoglycemic effect of 4524-E7 in C57BL/6J mice. C57BL/6J mice were starved for 12 h and then orally administrated with vehicle (0.5% methylcellulose) or 4524-E7 (5 mg/kg). Blood glucose was monitored at different time points as indicated (n=8, *: P<0.05, two-way ANOVA). (D) Hypoglycemic effect in db/db mice. db/db mice were starved for 12 h and then orally injected with vehicle (0.5% methylcellulose) or 4524-E7 (5 mg/kg). Blood glucose was monitored at different time points as indicated (n=5, *: P<0.05, two-way ANOVA). (E) Glucose tolerance test in ob/ob mice. The mice were starved for 12 hours and then orally administrated with vehicle or 4524-E7 (5 mg/kg). A bonus of glucose (2 gm/kg) was injected intraperitoneally 1 hour later. Blood glucose was then measured at 30 min intervals (n=13, *: P<0.05; **: P<0.01, two-way ANOVA).
After a 12 h fasting, C57B5L/6J and db/db mice were bled from the tail vein for a baseline measurement with a glucometer (Accu-Chek; Roche Diagnostics, Indianapolis, Ind.). Afterward, animals were orally administered 5 mg/kg compound in 0.5% methylcellulose through a feeding needle. Blood glucose levels were measured at hourly intervals over 5 h.

The target of test [2] is IR (Mus musculus, UniProt P15208). Nature of the test: IR phosphorylation and downstream signaling in mouse tissues. Format: in vivo. The settings on record: C57BL/6J mice, 20 mg/kg oral. The protocol: as §1
Sequence of IR (Mus musculus, UniProt P15208) (P15208 28-1372): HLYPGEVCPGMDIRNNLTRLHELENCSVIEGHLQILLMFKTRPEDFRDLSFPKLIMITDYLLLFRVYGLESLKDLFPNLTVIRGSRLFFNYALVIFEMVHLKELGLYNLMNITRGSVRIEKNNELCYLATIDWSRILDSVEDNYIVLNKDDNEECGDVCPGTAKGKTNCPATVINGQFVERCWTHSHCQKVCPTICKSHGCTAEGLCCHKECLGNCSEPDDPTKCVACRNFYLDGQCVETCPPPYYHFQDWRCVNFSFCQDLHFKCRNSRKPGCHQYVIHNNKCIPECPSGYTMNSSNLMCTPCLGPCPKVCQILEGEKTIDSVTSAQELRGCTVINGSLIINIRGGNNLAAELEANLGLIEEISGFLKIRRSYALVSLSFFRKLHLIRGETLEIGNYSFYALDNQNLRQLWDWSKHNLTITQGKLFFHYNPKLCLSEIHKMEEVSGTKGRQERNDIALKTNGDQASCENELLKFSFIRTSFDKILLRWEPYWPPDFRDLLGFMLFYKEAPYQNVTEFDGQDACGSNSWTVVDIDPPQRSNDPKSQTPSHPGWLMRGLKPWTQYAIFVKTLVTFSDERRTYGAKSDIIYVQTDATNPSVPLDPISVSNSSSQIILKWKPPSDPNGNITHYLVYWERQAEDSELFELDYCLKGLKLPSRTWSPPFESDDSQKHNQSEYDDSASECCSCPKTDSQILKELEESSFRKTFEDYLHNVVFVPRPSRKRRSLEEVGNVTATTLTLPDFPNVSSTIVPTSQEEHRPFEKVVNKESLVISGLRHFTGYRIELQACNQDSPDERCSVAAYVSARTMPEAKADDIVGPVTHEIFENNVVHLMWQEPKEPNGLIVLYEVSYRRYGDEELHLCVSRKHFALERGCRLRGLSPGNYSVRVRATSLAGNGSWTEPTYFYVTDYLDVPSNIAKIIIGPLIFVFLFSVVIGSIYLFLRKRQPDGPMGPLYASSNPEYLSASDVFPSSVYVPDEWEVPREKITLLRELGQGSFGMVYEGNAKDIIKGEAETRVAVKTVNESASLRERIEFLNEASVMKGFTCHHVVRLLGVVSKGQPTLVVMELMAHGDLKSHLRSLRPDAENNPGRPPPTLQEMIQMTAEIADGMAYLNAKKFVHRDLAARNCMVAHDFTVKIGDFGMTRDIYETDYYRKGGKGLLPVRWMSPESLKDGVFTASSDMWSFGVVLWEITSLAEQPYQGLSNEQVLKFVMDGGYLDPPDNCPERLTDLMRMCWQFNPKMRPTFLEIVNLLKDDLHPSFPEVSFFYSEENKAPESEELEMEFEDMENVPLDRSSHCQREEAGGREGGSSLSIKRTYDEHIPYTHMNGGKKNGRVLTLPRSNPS
Three-month-old mice were starved for 12 h and then orally administrated with vehicle (0.5% methylcellulose) or DDN (5 mg/kg). Cell lysates were prepared from liver and muscle tissues collected at 1 and 2 h after drug administration and analyzed by immunoprecipitation and immunoblotting. […] Three-month-old mice were starved for 12 h and then orally administrated with vehicle (0.5% methylcellulose) or DDN (5 mg/kg). Cell lysates were prepared from liver and muscle tissues collected at 1 and 2 h after drug administration and analyzed by immunoprecipitation and immunoblotting. (C) Hypoglycemic function of DDN in db/db mice. The animals were starved for 12 h and then orally injected with vehicle (0.5% methylcellulose) or DDN (5 mg/kg). […] Blood glucose was monitored before and after drug administration at 1-hour intervals (*: P<0.05, **: P<0.01, n=5, Two-way ANOVA vs vehicle). (D) DDN improves the glucose tolerance in ob/ob mice. The animals were starved for 12 h and then orally dosed with vehicle (0.5% methylcellulose) or DDN (5 mg/kg). […] A bonus of glucose (2 gm/kg) was injected intraperitoneally 1 hour later. Blood glucose was measured at 30-min intervals (*: P<0.05, **:P<0.01, n=5, Two-way ANOVA vs vehicle control).
as §2
After a 12 h fasting, C57BL/6J mice were orally administrated with 20 mg/kg of compound in 0.5% methylcellulose, and sacrificed at 3 h, 4 h and 5 h following compound administration. Fat tissues were dissected quickly and frozen on dry ice. Fat lysates were prepared and analyzed by Western blotting.

Test [3] deals with T2, IR (Homo sapiens, UniProt P06213). Nature of the test: Cell-based ELISA of IR tyrosine phosphorylation in CHO-IR cells. The arrangement: expressed in transfected cells; host or cells: CHO (CHO-IR, gift from Dr. Nicholas Webster, UCSD). The settings on record: 5 μM, ELISA. The protocol:
A cell-based screening assay was developed with Chinese hamster ovary cells stably transfected with IR (CHO-IR) by using an ELISA to determine the IR tyrosine phosphorylation. […] Other 1,4-Napthoquinones that are structurally related to 4524-E7 were evaluated.
CHO-IR cells were seeded in a 96-well plate at 15,000 cells per well in […] of 0.1% FBS medium with 0.1% FBS. […] Cells were lysed, and phosphorylated receptors were captured with pY20 immobilized on ELISA plates. Bound receptors were washed, then detected using an anti-IR beta antibody, followed by an horseradish peroxidase-conjugated secondary antibody and colorimetric detection with 3,3′,5,5′-tetramethylbenzidine.
(§3) A cell-based ELISA assay was developed with an IR stably transfected Chinese Hamster Ovary (CHO-IR) cell line. […] The cell lysates were subjected to the sandwich ELISA using immobilized anti-phosphotyrosine antibody and anti-IR antibody.

In test [4] the target is T1, GST-IRTK. The test can be described thus: Partial proteolysis. The settings on record: compound 50 μM or ATP-γ-S 5 μM; limited trypsin (or chymotrypsin) digestion. It is filed as binding. The protocol: 200 ng GST-IRTK was subjected to limited trypsin digestion in the presence or absence of 50 μM compound with 50 mM tris-HCL (pH8.2) and 20 mM CacCl2. The sample was separated on a SDS-polyacrylamide gel and stained by silver.
Several small molecules bind to the intracellular kinase domain of IR (IRTK) and provoke its activation. DDN might also interact with the IRTK to activate IR. To test this possibility, an UV-absorption spectra analysis was performed using recombinant IRTK. While the GST-tagged IRTK (GST-IRTK, a.a. 1011-1382) had no absorption from 200 nm to 800 nm, addition of DDN, but not its structural related analogue naptho[2,3-d]thiazole-4,9-dione-2-[(4-chlorophenyl)amino] […] Partial proteolysis analysis was also performed to confirm the DDN/IRTK interaction. Recombinant GST-tagged IRTK was incubated with either DMSO or DDN, followed by limited trypsin digestions. In DMSO treatment, GST-IRTK was digested into several smaller fragments of various molecular weights. […] Whereas a band of ˜37 kDa presented strongly in the ATP-γ-S incubated IRTK, a band of ˜30 kDa was found in the control samples but attenuated in the ATP-γ-S-treated sample.
To evaluate if 4524-E7 directly binds to the IR kinase domain, a partial proteolysis assay was performed with recombinant IRTK domain using trypsin or chymotrypsin, which was used before to characterize the interaction between IR and its small molecular ligand DAQ B1. Recombinant GST-tagged IRTK with either DMSO, 50 μM 4524-E7 or ATP-γ-S, were incubated and followed by limited trypsin or chymotrypsin digestion. Under DMSO treatment, GST-IRTK was quickly digested by both trypsin and chymotrypsin into several small fragments with various molecular weights (FIG. 10B). […] To test whether 4524-E7 selectively elevates IR kinase activities, an in vitro IR, IGFR, and EGFR kinase assays were performed using histone as the substrate.

The target in test [5] is T2, IR. The test can be described thus: Immunoblotting of IR phosphorylation and downstream signaling in CHO-IR cells. Format: cell-based. Further details: expressed in transfected cells; host or cells: CHO (CHO-IR, gift from Dr. Nicholas Webster, UCSD). The following applies: 5 μM, 30 min. The protocol:
The cell lysates were analyzed by immunoblotting with anti-phospho-IR antibodies, or immunoprecipitated by PY20 and analyzed using anti-IR and anti-IRS-1, respectively. […] The cell lysates were analyzed by immunoblotting with anti-pIGF-1R and anti-pEGFR. […]
as §3

T2 sequence (P06213 763-1382 limits assumed): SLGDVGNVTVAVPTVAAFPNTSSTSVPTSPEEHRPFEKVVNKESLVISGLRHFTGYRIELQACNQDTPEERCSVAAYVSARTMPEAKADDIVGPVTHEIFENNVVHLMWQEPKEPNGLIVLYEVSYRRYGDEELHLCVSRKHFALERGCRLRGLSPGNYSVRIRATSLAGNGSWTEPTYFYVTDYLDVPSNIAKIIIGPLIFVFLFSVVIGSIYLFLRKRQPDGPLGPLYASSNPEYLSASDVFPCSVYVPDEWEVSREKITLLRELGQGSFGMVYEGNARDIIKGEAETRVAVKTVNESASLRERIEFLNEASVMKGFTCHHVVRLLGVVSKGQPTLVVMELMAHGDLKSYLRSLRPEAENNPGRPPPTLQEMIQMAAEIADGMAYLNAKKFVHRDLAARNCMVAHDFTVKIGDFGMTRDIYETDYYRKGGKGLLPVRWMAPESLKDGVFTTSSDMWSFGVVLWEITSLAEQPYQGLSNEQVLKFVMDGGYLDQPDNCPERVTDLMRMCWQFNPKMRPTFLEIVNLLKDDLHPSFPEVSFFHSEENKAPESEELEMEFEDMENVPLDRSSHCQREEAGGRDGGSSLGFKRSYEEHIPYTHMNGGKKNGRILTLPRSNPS
T2 sequence (P06213 28-758 limits assumed): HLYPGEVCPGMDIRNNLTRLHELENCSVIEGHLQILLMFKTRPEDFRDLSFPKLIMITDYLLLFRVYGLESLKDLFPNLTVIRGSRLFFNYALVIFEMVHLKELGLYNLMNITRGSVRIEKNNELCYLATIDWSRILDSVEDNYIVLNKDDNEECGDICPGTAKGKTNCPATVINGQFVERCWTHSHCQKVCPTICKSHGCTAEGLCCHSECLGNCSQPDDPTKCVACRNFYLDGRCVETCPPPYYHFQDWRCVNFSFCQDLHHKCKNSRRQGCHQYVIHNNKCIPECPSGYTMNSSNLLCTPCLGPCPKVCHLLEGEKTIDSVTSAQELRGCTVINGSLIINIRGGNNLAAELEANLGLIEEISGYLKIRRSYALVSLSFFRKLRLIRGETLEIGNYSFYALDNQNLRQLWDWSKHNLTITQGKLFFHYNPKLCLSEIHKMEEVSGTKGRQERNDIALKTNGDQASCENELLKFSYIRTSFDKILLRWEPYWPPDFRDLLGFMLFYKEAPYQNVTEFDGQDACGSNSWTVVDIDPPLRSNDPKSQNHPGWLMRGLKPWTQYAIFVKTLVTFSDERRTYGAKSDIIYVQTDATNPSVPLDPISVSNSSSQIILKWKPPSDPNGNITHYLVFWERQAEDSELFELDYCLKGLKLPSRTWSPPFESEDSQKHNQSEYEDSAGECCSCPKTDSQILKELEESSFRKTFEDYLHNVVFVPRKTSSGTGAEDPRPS
T1 sequence (P06213 1011-1382): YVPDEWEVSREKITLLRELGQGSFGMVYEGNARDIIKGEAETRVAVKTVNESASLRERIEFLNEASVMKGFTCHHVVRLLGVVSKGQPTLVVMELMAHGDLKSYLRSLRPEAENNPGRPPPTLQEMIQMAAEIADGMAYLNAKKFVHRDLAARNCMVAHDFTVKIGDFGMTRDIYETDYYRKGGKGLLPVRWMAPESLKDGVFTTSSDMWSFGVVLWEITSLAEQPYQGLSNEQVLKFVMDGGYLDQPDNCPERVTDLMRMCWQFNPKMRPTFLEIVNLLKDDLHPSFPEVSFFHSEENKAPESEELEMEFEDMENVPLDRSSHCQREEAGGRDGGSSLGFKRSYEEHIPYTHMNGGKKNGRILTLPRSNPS

Turning to `NC1=CC(=O)c2ccccc2C1=O` [2NH2-NQ, 2-amino-1,4-naphthoquinone, reference compound], the “IRTK kinase activity (histone H2B phosphorylation)” value at GST-IRTK [1] is “inactive analogue”. Besides, the “blood glucose as compared to vehicle control” value in the test on C57BL/6J mice is “had no effect”. In addition, the “IR and IRS-1 tyrosine phosphorylation in liver and muscle” value at IR [2] is given as “Neither IR nor IRS phosphorylations were increased”. The IR phosphorylation entry on IR [3] (15 min, CHO-IR cells) is “not active”.

`Nc1ncnc2c1ncn2[C@@H]1O[C@H](COP(=O)(O)OP(=O)(O)OP(O)(O)=S)[C@@H](O)[C@H]1O` [ATP-γ-S, reference compound]: on GST-IRTK [4], the “protection of IRTK from proteolysis” value was “altered the proteolysis pattern; also recorded: digestion pattern was altered”.

For `O=C1c2ccccc2C(=O)c2sc(Nc3ccc(Cl)cc3Cl)nc21` [compound 7, 2-((2,4-dichlorophenyl)amino)naphtho[2,3-d]thiazole-4,9-dione], the “IR phosphorylation, 4524-E7 derivatives” value on IR [3] (30 min, compared to the parental compound) is given as “improved activity”. The IR tyrosine phosphorylation entry on IR [5] is “triggered IR tyrosine phosphorylation”.
